What was measured:
[1] = Intrinsic clearance in rat hepatocytes assessed per million cells; format: ADME, cell-based, Hepatocyte; conditions: read-out: CLH
[2] = Intrinsic Clearance in human liver microsome; format: ADME; conditions: liver microsomes, read-out: CLH
[3] = Apparent permeability across apical to basolateral side in human Caco-2 cells at pH 6.5 after 45 to 120 mins by LC-MS/MS analysis; format: ADME, cell-based; conditions: Caco-2, pH 6.5, time 45-120 min
[4] = target: Voltage-gated inwardly rectifying potassium channel KCNH2 (Homo sapiens, UniProt Q12809); assay: Inhibition of human ERG by patch clamp assay; format: toxicity
SUD4 = assay: Cytotoxicity against human SU-DHL-4 cells assessed as reduction in cell viability
[5] = Lipophilicity, logD of the compound in buffer/octanol volume ratio of 100:1 at pH 7.4 by shake flask method; format: physicochemical
[6] = target: Tyrosine-protein kinase SYK (Homo sapiens, UniProt P43405); assay: Inhibition of full length recombinant human SYK
[7] = Clearance in Han-Wistar rat at 1 umol/kg, iv; format: ADME; conditions: in vivo, dose 1 µmol/kg
[8] = Oral bioavailability in Han-Wistar rat at 2 umol/kg; format: ADME, organism-based; conditions: in vivo, at 2 µmol/kg
[9] = Volume of distribution at steady state in Han-Wistar rat at 1 umol/kg, iv; format: ADME; conditions: in vivo, dose 1 µmol/kg, read-out: Vdss
[10] = Plasma protein binding in Han-Wistar rat assessed as fraction unbound; format: ADME, cell-free
[11] = Intrinsic clearance in Han-Wistar rat hepatocytes; format: ADME, cell-based, Hepatocyte
[12] = target: Mitogen-activated protein kinase kinase kinase 9 (Homo sapiens) (UniProt P80192); assay: Inhibition of MAP3K9 (unknown origin) at 0.1 uM relative to control
[13] = Hydrolytic stability of the compound at pH 1 assessed as half life; format: physicochemical; conditions: buffer
[14] = Hydrolytic stability of the compound at pH 7.4 assessed as half life; format: physicochemical; conditions: buffer
[15] = Hydrolytic stability of the compound at pH 10 assessed as half life; format: physicochemical; conditions: buffer
[16] = Clearance in Beagle Dog at 1 umol/kg, iv; format: ADME, Canis lupus familiaris; conditions: in vivo, dose 1 µmol/kg
[17] = Volume of distribution at steady state in Beagle Dog at 1 umol/kg, iv; format: ADME, Canis lupus familiaris; conditions: in vivo, dose 1 µmol/kg, read-out: Vdss
[18] = Oral bioavailability in Beagle Dog at 2 umol/kg; format: ADME, organism-based, Canis lupus familiaris; conditions: in vivo, at 2 µmol/kg
[19] = Intrinsic clearance in Beagle Dog hepatocytes; format: ADME, cell-based, Canis lupus familiaris, Hepatocyte

Voltage-gated inwardly rectifying potassium channel KCNH2, sequence (Q12809 whole entry): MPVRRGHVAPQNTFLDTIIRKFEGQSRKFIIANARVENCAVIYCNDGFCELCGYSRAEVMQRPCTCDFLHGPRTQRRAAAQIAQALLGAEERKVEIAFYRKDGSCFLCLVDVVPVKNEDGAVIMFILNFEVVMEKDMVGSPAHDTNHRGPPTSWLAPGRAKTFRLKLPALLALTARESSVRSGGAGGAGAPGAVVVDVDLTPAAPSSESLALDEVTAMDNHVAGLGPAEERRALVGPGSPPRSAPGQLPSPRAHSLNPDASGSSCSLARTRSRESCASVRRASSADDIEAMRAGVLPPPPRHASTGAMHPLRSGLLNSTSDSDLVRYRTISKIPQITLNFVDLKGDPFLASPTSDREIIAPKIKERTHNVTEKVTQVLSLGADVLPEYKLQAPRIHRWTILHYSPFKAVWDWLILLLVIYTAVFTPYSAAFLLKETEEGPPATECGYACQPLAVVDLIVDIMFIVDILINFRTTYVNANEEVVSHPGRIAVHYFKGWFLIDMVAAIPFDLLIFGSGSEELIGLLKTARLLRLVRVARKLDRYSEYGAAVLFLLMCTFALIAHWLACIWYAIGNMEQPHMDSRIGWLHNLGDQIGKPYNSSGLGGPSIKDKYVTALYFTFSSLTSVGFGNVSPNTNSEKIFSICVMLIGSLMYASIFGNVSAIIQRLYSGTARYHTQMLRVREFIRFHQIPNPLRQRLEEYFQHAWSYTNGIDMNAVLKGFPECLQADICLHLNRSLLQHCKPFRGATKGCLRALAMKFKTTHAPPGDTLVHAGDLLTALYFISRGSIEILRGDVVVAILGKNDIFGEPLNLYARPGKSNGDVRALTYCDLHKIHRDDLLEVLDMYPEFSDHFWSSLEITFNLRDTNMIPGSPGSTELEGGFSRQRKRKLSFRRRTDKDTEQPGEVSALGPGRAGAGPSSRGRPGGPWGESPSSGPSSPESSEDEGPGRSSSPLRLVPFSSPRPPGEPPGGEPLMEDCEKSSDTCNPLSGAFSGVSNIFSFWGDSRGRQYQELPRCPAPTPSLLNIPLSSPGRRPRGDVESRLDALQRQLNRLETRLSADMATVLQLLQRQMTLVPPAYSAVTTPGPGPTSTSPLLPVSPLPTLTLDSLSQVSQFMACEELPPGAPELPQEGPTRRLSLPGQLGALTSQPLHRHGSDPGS
Mitogen-activated protein kinase kinase kinase 9 (Homo sapiens), sequence (P80192 whole entry, looked up): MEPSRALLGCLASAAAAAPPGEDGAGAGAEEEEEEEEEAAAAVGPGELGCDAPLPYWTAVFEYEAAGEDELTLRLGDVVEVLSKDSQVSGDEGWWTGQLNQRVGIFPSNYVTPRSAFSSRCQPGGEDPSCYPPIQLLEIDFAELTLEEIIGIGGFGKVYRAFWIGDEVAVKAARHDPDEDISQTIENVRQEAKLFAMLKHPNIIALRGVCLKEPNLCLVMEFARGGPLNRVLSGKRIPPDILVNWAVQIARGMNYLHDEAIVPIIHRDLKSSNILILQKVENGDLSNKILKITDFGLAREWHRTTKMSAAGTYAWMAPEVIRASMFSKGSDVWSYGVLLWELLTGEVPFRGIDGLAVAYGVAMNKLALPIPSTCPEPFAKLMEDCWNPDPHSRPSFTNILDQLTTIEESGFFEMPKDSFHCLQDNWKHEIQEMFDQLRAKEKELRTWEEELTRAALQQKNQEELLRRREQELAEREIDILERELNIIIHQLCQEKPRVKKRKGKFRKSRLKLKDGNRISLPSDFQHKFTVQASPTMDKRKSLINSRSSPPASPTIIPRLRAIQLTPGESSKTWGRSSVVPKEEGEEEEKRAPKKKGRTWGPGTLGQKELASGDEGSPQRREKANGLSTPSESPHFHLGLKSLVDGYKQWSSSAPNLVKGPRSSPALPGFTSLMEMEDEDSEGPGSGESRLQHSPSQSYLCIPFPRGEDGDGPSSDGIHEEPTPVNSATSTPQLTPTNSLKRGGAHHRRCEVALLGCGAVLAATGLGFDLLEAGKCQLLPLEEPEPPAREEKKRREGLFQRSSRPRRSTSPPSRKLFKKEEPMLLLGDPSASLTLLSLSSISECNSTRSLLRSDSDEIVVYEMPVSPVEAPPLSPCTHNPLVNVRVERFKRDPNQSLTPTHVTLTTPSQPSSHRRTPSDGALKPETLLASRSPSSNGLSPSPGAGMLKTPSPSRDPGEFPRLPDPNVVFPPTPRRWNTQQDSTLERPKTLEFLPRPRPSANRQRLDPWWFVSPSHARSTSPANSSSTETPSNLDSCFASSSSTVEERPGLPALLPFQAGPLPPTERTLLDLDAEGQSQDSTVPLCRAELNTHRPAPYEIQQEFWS

Row | Compound | hepatocyte CLint [1] [µL/min/1e6 cells] | microsomal CLint [2] [µL/min/mg] | Papp A→B [3] [×10⁻⁶ cm/s] | IC50 [4] [nM] | IC50 (SUD4) [nM] | logD [5] | further results
1 | Cc1nn2cc1CN(C)N1CCC(O)(CCNC(=O)c3nn(C)c4ccc(cc34)Nc3nccc-2n3)CC1 | 2.1 | 28 | 1.9 | 8800 | 100 | 1.6 | 
2 | Cc1nn2cc1CN(C)CCOCCNC(=O)c1nn(C[C@H](C)O)c3ccc(cc13)Nc1nccc-2n1 | 6.5 | 34 |  | > 22000 | 390 | 1.3 | 
3 | CNC(=O)c1nn(C)c2ccc(Nc3nccc(-n4cc(CN(C)C)c(C)n4)n3)cc12 |  |  |  |  | 240 |  | 
4 | Cc1nn2cc1CN(C)CCCCCNC(=O)c1nn(C)c3ccc(cc13)Nc1nccc-2n1 | 12 | 44 |  |  | 2200 | 2.7 | 
5 | Cc1nn2cc1CN(C)N1CC(CNC(=O)c3nn(C)c4ccc(cc34)Nc3nccc-2n3)C1 | 27 | 18 |  |  | 1200 | 1.2 | 
6 | Cc1nn2cc1CN(C)CCOCCNC(=O)c1nn(CC(C)(C)O)c3ccc(cc13)Nc1nccc-2n1 | 3.4 | 52 |  | 8000 | 480 | 1.6 | 
7 | Cc1nn2cc1CN(C)N1CCC(CCNC(=O)c3nn(C)c4ccc(cc34)Nc3nccc-2n3)CC1 | 15 | 76 |  |  | 350 | 2.3 | 
8 | Cc1nn2cc1CN(C)CCOCCNC(=O)c1nn(C)c3ccc(cc13)Nc1nccc-2n1 | 8.1 | 25 | 19 | 850 | 570 | 1.8 | IC50 [6]: 0.13 nM; clearance [7]: 16 mL/min/kg; bioavailability [8]: 64%; Vd [9]: 1.9 L/kg; Fu [10]: 7%; CLH [11]: 8.1 µL/min/1e6 cells; inhibition [12]: > 70%
9 | CC(=O)OC(C)(C)Cn1nc2c3cc(ccc31)Nc1nccc(n1)-n1cc(c(C)n1)CN(C)CCOCCNC2=O | 63 | 229 | 13 | 1200 | 850 | 2.5 | half-life [13]: 6.5 h; half-life [14]: 72 h; half-life [15]: 2.9 h
10 | Cc1nn2cc1CN(C)CCOCCNC(=O)c1nn(CCO)c3ccc(cc13)Nc1nccc-2n1 | < 1.6 | 23 | 1.12 | > 39000 | 280 | 1.2 | clearance [7]: 33 mL/min/kg; bioavailability [8]: 0.9%; Vd [9]: 2.1 L/kg; Fu [10]: 16%; CLH [11]: < 1.5 µL/min/1e6 cells; clearance [16]: 9 mL/min/kg; Vd [17]: 1.9 L/kg; bioavailability [18]: 0.38%; CLH [19]: < 1 µL/min/1e6 cells
11 | CC(=O)OCCn1nc2c3cc(ccc31)Nc1nccc(n1)-n1cc(c(C)n1)CN(C)CCOCCNC2=O | 198 | > 300 | 3.6 | 2100 | 990 | 1.9 | half-life [13]: 0.7 h; half-life [14]: 6.8 h; half-life [15]: < 0.5 h
12 | Cc1nn2cc1CN(C)CCOCCNC(=O)c1nn(C3COC3)c3ccc(cc13)Nc1nccc-2n1 | 4.6 | 28 | 3.7 | 3700 | 550 | 1.7 | 
13 | Cc1nn2cc1CN(C)CCOCCNC(=O)c1nn(C[C@@H](C)O)c3ccc(cc13)Nc1nccc-2n1 | 4.4 | 39 |  | 22000 | 260 | 1.4 | 
14 | Cc1nn2cc1CN(C)CCOCCNC(=O)c1nn(CCOC(=O)C(C)(C)C)c3ccc(cc13)Nc1nccc-2n1 | 163 | > 300 | 8 | 1100 | 1000 | 3.1 | half-life [13]: > 100 h; half-life [14]: 30 h; half-life [15]: 5 h
